This is an account of results in ChEMBL document CHEMBL1133426, “2-Substituted paullones: CDK1/cyclin B-inhibiting property and in vitro antiproliferative activity” (Bioorg Med Chem Lett, 2000).

The structures appear in SMILES notation.

Assay [1] in a line: cells. Format: functional. As to conditions: Homo sapiens.
Description: Inhibition of proliferation in NCI panel of 60 human tumor cell lines
Assay [2] has as its system HCT-116. The experiment in a line: cells. The assay is classed as functional. The settings on record: Homo sapiens.
Description: Inhibition of HCT116 colon cancer cell proliferation

On to `O=C1Cc2c([nH]c3ccc(C(F)(F)F)cc23)-c2cc(C#CCO)ccc2N1`, for which the figures for the GI50 in assay [1] and in assay [2] were 12.6 µM and 3160 nM, respectively. As for `O=C1Cc2c([nH]c3ccc(Br)cc23)-c2ccccc2N1` [KENPAULLONE], the GI50 (usually the concentration that inhibits growth by half) in assay [1] was 39.8 µM. `O=C1Cc2c([nH]c3ccc(C(F)(F)F)cc23)-c2cc(C#CC3(O)CCCCC3)ccc2N1`: the GI50 in assay [1] was 2 µM; in assay [2] it was 2510 nM.
